Data published in ChEMBL document CHEMBL3272225, “Potential carcinostatics. Synthesis and biological properties of d- and 1-beta,beta-difluoroaspartic acid and beta,beta-difluoroasparagine” (J Med Chem, 1977).
Values belong to the molecule of their own block, whether it stands above or below them. Activity calls are given as the source filed them. The rule behind the calls is not given here.

Assays:
[1] = Growth inhibition of mouse 3T3-F cells assessed as cell growth at 100 ug/ml after 24 hrs by Coulter counting method; type: functional
[2] = Growth inhibition of mouse 3T3-F cells at 10 ug/ml assessed as cell growth after 24 hrs by Coulter counting method; type: functional
Mus musculus = organism: Mus musculus; assay: Growth inhibition of mouse 3T3-F cells assessed as cell growth after 24 hrs by Coulter counting method; type: functional
L5178Y = assay: Antitumor activity against mouse L5178Y cells allografted in CDF-1 mouse assessed as cytostatic activity administered on day 1 to day 9 post challenge; type: functional
[3] = Competitive inhibition of aspartate aminotransferase in rat liver homogenate by Lineweaver-Burk plot method; type: tissue-based

SMILES: N[C@@H](C(=O)O)C(F)(F)C(=O)O
Cell growth at 100 µg/mL [1]: 12%
Cell growth at 10 µg/mL [2]: 75%

SMILES: N[C@H](C(=O)O)C(F)(F)C(=O)O
Activity (Mus musculus): inactive

Ki [3]: 1000 µM
SMILES: NC(C(=O)O)C(F)(F)C(=O)O (racemic)
Activity (L5178Y): inactive

SMILES: NC(=O)C(F)(F)C(N)C(=O)O (racemic)
Activity (L5178Y): inactive
